Legend:
Type in all cases: in vivo
kochia (Bassia scoparia) [1] = assay: Test A preemergence soil spray, visual injury rating 0-100; conditions: 10 days
How it was run: (§1)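 Directed preemergence spray onto seeded soil or postemergence spray onto 2-10 cm plants (loam plus sand); compound carried in surfactant-containing non-phytotoxic solvent. Injury rated by eye after 10 d greenhouse growth; 0 = no effect, 100 = complete control.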

soybean (Glycine max) [2] = assay: as above; conditions: 10 days
How it was run: as §1

[3] = test system: green foxtail (Setaria viridis); assay: as above; conditions: 10 days
How it was run: as §1

[4] = test system: ragweed (common ragweed, Ambrosia artemisiifolia); assay: as above; conditions: 10 days
How it was run: as §1

[5] = test system: palmer (palmer amaranth, palmer pigweed, Amaranthus palmeri); assay: as above; conditions: 10 days
How it was run: as §1

[6] = test system: oat, wild (wild oat, Avena fatua); assay: as above; conditions: 10 days
How it was run: as §1

[7] = test system: wheat (Triticum aestivum); assay: as above; conditions: 10 days
How it was run: as §1

[8] = test system: blackgrass (Alopecurus myosuroides); assay: as above; conditions: 10 days
How it was run: as §1

[9] = test system: ryegrass, Italian (italian ryegrass, Lolium multiflorum); assay: as above; conditions: 10 days
How it was run: as §1

[10] = test system: barnyardgrass (Echinochloa crus-galli); assay: as above; conditions: 10 days
How it was run: as §1

corn (Zea mays) [11] = assay: as above; conditions: 10 days
How it was run: as §1

rice (Oryza sativa) = assay: Test B flooded paddy test, visual plant response rating 0-100; conditions: 250 g ai/ha, Flood, applied to paddy water, evaluated after 13 days
How it was run: (§2)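 Visual evaluation after 13 days. Water-applied treatment, 3 cm flood depth held constant, plants at 2-leaf stage at treatment.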

[12] = test system: ducksalad (Heteranthera limosa); assay: as above; conditions: 250 g ai/ha, Flood, applied to paddy water, evaluated after 13 days
How it was run: as §2

[13] = test system: sedge, umbrella (small-flower umbrella sedge, Cyperus difformis); assay: as above; conditions: 250 g ai/ha, Flood, applied to paddy water, evaluated after 13 days
How it was run: as §2

[14] = test system: barnyardgrass (Echinochloa crusgalli); assay: as above; conditions: 250 g ai/ha, Flood, applied to paddy water, evaluated after 13 days
How it was run: as §2

kochia (Bassia scoparia) [15] = assay: Test A postemergence application, visual injury rating 0-100
How it was run: as §1

soybean (Glycine max) [16] = assay: as above
How it was run: as §1

[17] = test system: galium (catchweed bedstraw, Galium aparine); assay: as above
How it was run: as §1

[18] = test system: green foxtail (Setaria viridis); assay: as above
How it was run: as §1

[19] = test system: ragweed (common ragweed, Ambrosia artemisiifolia); assay: as above
How it was run: as §1

[20] = test system: palmer (palmer amaranth, palmer pigweed, Amaranthus palmeri); assay: as above
How it was run: as §1

[21] = test system: oat, wild (wild oat, Avena fatua); assay: as above
How it was run: as §1

[22] = test system: horseweed (Erigeron canadensis); assay: as above
How it was run: as §1

[23] = test system: wheat (Triticum aestivum); assay: as above
How it was run: as §1

[24] = test system: blackgrass (Alopecurus myosuroides); assay: as above
How it was run: as §1

[25] = test system: ryegrass, Italian (italian ryegrass, Lolium multiflorum); assay: as above
How it was run: as §1

[26] = test system: barnyardgrass (Echinochloa crus-galli); assay: as above
How it was run: as §1

corn (Zea mays) [27] = assay: as above
How it was run: as §1

[28] = 62 g ai/ha, 0 = no effect, 100 = complete control
[29] = 62 g ai/ha, postemergence, 10 days, 0 = no effect, 100 = complete control
[30] = Postemergence, 16 g ai/ha, greenhouse 10 days, 0 no effect, 100 complete control

CC1(C(=O)NC2CC=C(C(=O)O)C2)CN(c2cc(Cl)cc(Cl)c2)C(=O)O1 (stereo not shown) [Compound 157]
Kochia plant response rating (kochia (Bassia scoparia) [1]; 16 g ai/ha, 0 to 100 scale): 0
Kochia plant response rating (0-100) (kochia (Bassia scoparia) [1]; [28]): 0
Soybean plant response rating (soybean (Glycine max) [2]; 16 g ai/ha, 0 to 100 scale): 0
Soybean plant response rating (0-100) (soybean (Glycine max) [2]; [28]): 0
Foxtail, Green plant response rating ([3]; 16 g ai/ha, 0 to 100 scale): 0
Foxtail, Green plant response rating (0-100) [3, 28]: 0
Ragweed plant response rating ([4]; 16 g ai/ha, 0 to 100 scale): 0
Ragweed plant response rating (0-100) [4, 28]: 0
Pigweed, Palmer plant response rating ([5]; 16 g ai/ha, 0 to 100 scale): 0
Pigweed, Palmer plant response rating (0-100) [5, 28]: 0
Oat, Wild plant response rating ([6]; 16 g ai/ha, 0 to 100 scale): 0
Oat, Wild plant response rating (0-100) [6, 28]: 0
Wheat plant response rating ([7]; 16 g ai/ha, 0 to 100 scale): 0
Wheat plant response rating (0-100) [7, 28]: 0
Blackgrass plant response rating ([8]; 16 g ai/ha, 0 to 100 scale): 0
Blackgrass plant response rating (0-100) [8, 28]: 0
Ryegrass, Italian plant response rating ([9]; 16 g ai/ha, 0 to 100 scale): 0
Ryegrass, Italian plant response rating (0-100) [9, 28]: 0
Barnyardgrass plant response rating ([10]; 16 g ai/ha, 0 to 100 scale): 0
Barnyardgrass plant response rating (0-100) [10, 28]: 30
Corn plant response rating (corn (Zea mays) [11]; 16 g ai/ha, 0 to 100 scale): 0
Corn plant response rating (0-100) (corn (Zea mays) [11]; [28]): 0
Plant response rating, Rice (0 to 100 scale, 0 is no effect and 100 is complete control) (rice (Oryza sativa)): 0
Plant response rating, Ducksalad (0 to 100 scale, 0 is no effect and 100 is complete control) [12]: 0
Plant response rating, Sedge, Umbrella (0 to 100 scale, 0 is no effect and 100 is complete control) [13]: 0
Plant response rating, Barnyardgrass (0 to 100 scale, 0 is no effect and 100 is complete control) [14]: 0
Kochia plant response rating (0-100) (kochia (Bassia scoparia) [15]; [29]): 60
Kochia plant response rating (0 to 100 scale) (kochia (Bassia scoparia) [15]; [30]): 50
Soybean plant response rating (0-100) (soybean (Glycine max) [16]; [29]): 60
Soybean plant response rating (0 to 100 scale) (soybean (Glycine max) [16]; [30]): 40
Galium plant response rating (0-100) [17, 29]: 70
Galium plant response rating (0 to 100 scale) [17, 30]: 30
Foxtail, Green plant response rating (0-100) [18, 29]: 10
Foxtail, Green plant response rating (0 to 100 scale) [18, 30]: 0
Ragweed plant response rating (0-100) [19, 29]: 30
Ragweed plant response rating (0 to 100 scale) [19, 30]: 0
Pigweed, Palmer plant response rating (0-100) [20, 29]: 50
Pigweed, Palmer plant response rating (0 to 100 scale) [20, 30]: 0
Oat, Wild plant response rating (0-100) [21, 29]: 0
Oat, Wild plant response rating (0 to 100 scale) [21, 30]: 0
Horseweed plant response rating (0-100) [22, 29]: 0
Horseweed plant response rating (0 to 100 scale) [22, 30]: 0
Wheat plant response rating (0-100) [23, 29]: 30
Wheat plant response rating (0 to 100 scale) [23, 30]: 0
Blackgrass plant response rating (0-100) [24, 29]: 30
Blackgrass plant response rating (0 to 100 scale) [24, 30]: 0
Ryegrass, Italian plant response rating (0-100) [25, 29]: 60
Ryegrass, Italian plant response rating (0 to 100 scale) [25, 30]: 0
Barnyardgrass plant response rating (0-100) [26, 29]: 40
Barnyardgrass plant response rating (0 to 100 scale) [26, 30]: 0
Corn plant response rating (0-100) (corn (Zea mays) [27]; [29]): 0
Corn plant response rating (0 to 100 scale) (corn (Zea mays) [27]; [30]): 0

— US20260285850A1, “SUBSTITUTED OXAZOLIDINONES AND IMIDAZOLINONES AS HERBICIDES” (FMC CORPORATION, priority 2023, published 2026)
